For one assay, the system named is Sarcoma 180 ascites. Briefly: Sarcoma 180 ascites antitumor screening. It counts as in vivo, Female CFW mice. As to conditions: for %ILS: ILS ≧ 50% indicates activity; for Surv.: survivors per 6 mice at twice the MST of controls. The method, then:
(§1) Each compound was evaluated in at least one of these screens.
Female CFW mice (18 - 25 g) were implanted with 2 x 10⁶ cells ip on day zero. Compounds were administered in 0.5 mL water ip on day one. Groups of 6 mice were used for each test dose as well as controls as defined above. The test was run for twice the MST of the control group, with survivors counted as dying on that day. An ILS of ≧ 50% indicates activity. The tumor line was maintained through weekly transfer of 4 x 10⁶ cells in CFW mice.

The subject of the next assay is L1210 Leukemia. In words: L1210 leukemia antitumor screening. Type of assay: in vivo, Female CDF₁ mice. As to conditions: for %ILS: ILS ≧ 25% represents activity; for Surv.: survivors per 6 mice at three times the MST of controls. The protocol:
as §1
L1210 screening was conducted according to a published method. See Rose, W.C.; Schurig, J.F.; Huftalen, J.B.; Bradner, W.T. Cancer Treat. Rep. […] Female CDF₁ mice (16 - 22 g) were implanted with 1 x 10⁶ tumor cells ip on day zero. Compounds were administered in 0.5 mL water ip on day one. Groups of 6 mice were used for each dose. A control group received only tumor and 0.5 mL water. A positive control group received tumor and 8 mg/kg cisplatin in 0.5 mL of 0.15 M NaCl. The test was terminated after three times the mean survival time (MST) of the control group, surviving mice were counted as dying on that day. Activity was determined based on the percent increase in MST of test mice over controls (%ILS). […] The tumor line was maintained through weekly transfer of 5 x 10⁴ cells in DBA/2 mice.

The mark [1] stands for this setting: S180a, dose 10 mg/kg ip in water on day one.
Where [2] appears, read: S180a, dose 20 mg/kg ip in water on day one.
[3] abbreviates: S180a, dose 40 mg/kg ip in water on day one.
[4] abbreviates: S180a, dose 80 mg/kg ip in water on day one.
The mark [5] stands for this setting: S180a, dose 160 mg/kg ip in water on day one.
[6] abbreviates: S180a, dose 320 mg/kg ip in water on day one.

Where “and” joins values, the source holds several entries; their conditions need not be identical. Equal values may be shown once.

`CC1CCNCC1.N.N.O=[N+]([O-])[O-].[Cl-].[Pt+2]` [cis-[Pt(NH3)2(4-methylpiperidine)Cl]NO3, cis-[Pt(NH₃)₂(4-methylpiperidine)Cl]NO₃]: the “%ILS” value is 4% in the assay with Sarcoma 180 ascites (setting [1]); 13% in the assay on Sarcoma 180 ascites (setting [2]); 18% in the assay with Sarcoma 180 ascites (setting [3]); 76% in the assay on Sarcoma 180 ascites (setting [4]); 4% with Sarcoma 180 ascites (setting [5]); -80% in the assay with Sarcoma 180 ascites (setting [6]). The “%ILS” value is reported as 24% in the assay with L1210 Leukemia (L1210, dose 10 mg/kg ip in water on day one); 17% with L1210 Leukemia (L1210, dose 20 mg/kg ip in water on day one); 60% with L1210 Leukemia (L1210, dose 40 mg/kg ip in water on day one); 57% with L1210 Leukemia (L1210, dose 80 mg/kg ip in water on day one); -28% with L1210 Leukemia (L1210, dose 160 mg/kg ip in water on day one); -68% in the assay with L1210 Leukemia (L1210, dose 320 mg/kg ip in water on day one). Further, the Surv. in the assay with Sarcoma 180 ascites (S180a, dose 10 mg/kg ip) is 0/6; in the assay on Sarcoma 180 ascites (S180a, dose 20 mg/kg ip), 0/6; in the assay with Sarcoma 180 ascites (S180a, dose 40 mg/kg ip), 0/6; in the assay with Sarcoma 180 ascites (S180a, dose 80 mg/kg ip), 1/6; with Sarcoma 180 ascites (S180a, dose 160 mg/kg ip) it was 1/6; in the assay with Sarcoma 180 ascites (S180a, dose 320 mg/kg ip) it was 0/6. For the same molecule, the Surv. is given as 0/6 in the assay with L1210 Leukemia (L1210, dose 10 mg/kg ip); 0/6 with L1210 Leukemia (L1210, dose 20 mg/kg ip); 0/6 in the assay on L1210 Leukemia (L1210, dose 40 mg/kg ip); 0/6 in the assay on L1210 Leukemia (L1210, dose 80 mg/kg ip); 0/6 in the assay with L1210 Leukemia (L1210, dose 160 mg/kg ip); 0/6 with L1210 Leukemia (L1210, dose 320 mg/kg ip).
Take `CCCCCCCC[NH2+][Pt-2]([NH3+])([NH3+])[Cl].O=[N+]([O-])[O-]` [cis-[Pt(NH3)2(octylamine)Cl]NO3, cis-[Pt(NH₃)₂(octylamine)Cl]NO₃]: the “%ILS” value with Sarcoma 180 ascites (setting [1]) is recorded as 16%; with Sarcoma 180 ascites (setting [2]), 25%; in the assay on Sarcoma 180 ascites (setting [3]), 22%; with Sarcoma 180 ascites (setting [4]), -78%; in the assay on Sarcoma 180 ascites (setting [5]) it was -78%; in the assay on Sarcoma 180 ascites (setting [6]), -95%. The Surv. with Sarcoma 180 ascites (S180a, dose 10 mg/kg ip) was 0/6; in the assay on Sarcoma 180 ascites (S180a, dose 20 mg/kg ip) it was 0/6; with Sarcoma 180 ascites (S180a, dose 40 mg/kg ip) it was 0/6; in the assay on Sarcoma 180 ascites (S180a, dose 80 mg/kg ip), 0/6; in the assay with Sarcoma 180 ascites (S180a, dose 160 mg/kg ip) it was 0/6; in the assay with Sarcoma 180 ascites (S180a, dose 320 mg/kg ip), 0/6. For the same molecule, the “activity in the S-180 ascites screen” value in the assay with Sarcoma 180 ascites (statement in words) is recorded as “substantially no activity”.
In the case of `O=[N+]([O-])[O-].[NH3+][Pt-2]([NH3+])([Cl])[NH2+]CC1CCCCC1` (stereo not drawn) [cis-[Pt(NH₃)₂(cyclohexanemethylamine)Cl]NO₃], the “%ILS” value in the assay on Sarcoma 180 ascites (setting [1]) is 15%; in the assay with Sarcoma 180 ascites (setting [2]) it was 22%; with Sarcoma 180 ascites (setting [3]) it was 19%; in the assay on Sarcoma 180 ascites (setting [4]), 61%; in the assay on Sarcoma 180 ascites (setting [5]) it was -78%; in the assay on Sarcoma 180 ascites (setting [6]), -94%. Moreover, the Surv. with Sarcoma 180 ascites (S180a, dose 10 mg/kg ip) is 0/6; with Sarcoma 180 ascites (S180a, dose 20 mg/kg ip) it was 0/6; in the assay with Sarcoma 180 ascites (S180a, dose 40 mg/kg ip), 1/6; in the assay on Sarcoma 180 ascites (S180a, dose 80 mg/kg ip) it was 0/6; in the assay with Sarcoma 180 ascites (S180a, dose 160 mg/kg ip) it was 0/6; in the assay with Sarcoma 180 ascites (S180a, dose 320 mg/kg ip) it was 0/6.
Regarding “cis-[Pt(NH₃)₂Cl₂] [Positive Control, reference compound]”, the “Positive Control %ILS” value is 65% and 80% in the assay on Sarcoma 180 ascites (S180a, positive control 8 mg/kg cisplatin in 0.15 M NaCl ip); 149% in the assay with L1210 Leukemia (L1210, positive control 8 mg/kg cisplatin in 0.15 M NaCl ip). In addition, the “Positive Control Surv.” value in the assay on Sarcoma 180 ascites (S180a, positive control 8 mg/kg cisplatin in 0.15 M NaCl ip, survivors per 6 mice) is 1/6 and 3/6; with L1210 Leukemia (L1210, positive control 8 mg/kg cisplatin in 0.15 M NaCl ip, survivors per 6 mice), 2/6.

These data come from patent EP0300812A2, “Platinum triamine antitumor agents containing saturated amines” (ENGELHARD CORPORATION, priority 1987, dated 1989).
